Test results taken from article PMC4467398, “Preclinical antitumor activity of ST7612AA1: a new oral thiol-based histone deacetylase (HDAC) inhibitor” (Oncotarget, 2014).

What was measured:
[1] = system: Breast cancer MDA-MB231; assay: In vitro proliferation assay (sulphorodamine B); format: cell-based; settings: Homo sapiens, MDA-MB-231, 72 h, mean ± S.E.M.
[2] = system: Colon cancer HCT116; assay: In vitro proliferation assay (sulphorodamine B); format: cell-based; settings: Homo sapiens, HCT-116, 72 h, mean ± S.E.M.
[3] = system: Chronic myeloid leukemia K562; assay: In vitro proliferation assay (sulphorodamine B); format: cell-based; settings: Homo sapiens, 72 h, mean ± S.E.M.
[4] = system: Acute myeloid leukemia MV4;11 xenograft; assay: In vivo xenograft model, oral ST7612AA1; parameters: species or system nude mice; settings: 60 mg/10 mL/kg oral, Qdx5/wx3w
Method: (§1) Experiments on solid tumor and acute leukemia in vivo models were carried out at Sigma-Tau (Rome, Italy) using female athymic nude mice, 5-6 weeks-old (Harlan Laboratories, Udine, IT). Mice were maintained in laminar flow rooms with constant temperature and humidity in according to the NIH guidelines. The following human tumor xenograft models were used for antitumor activity studies: HCT116 derived from colon carcinoma), MV4;11 from acute myeloid leukaemia (AML), SKOV-3 from ovarian carcinoma, and NCI-H1975 from non-small cell lung cancer (NSCLC). Exponentially growing tumor cells were s.c. inoculated (5×10^6/mouse) in the right flank of nude mice. Groups of eight mice/group were employed to assess antitumor activity. MDA-MB436 breast carcinoma (3×10^6 cells/0.1 mL of M199/Matrigel GFR 50:50, vol/vol solution) was inoculated in mammary fat pad (mfp). Drug treatments were started from 3 to 11 days after tumor injection, depending on the tumor growth of the xenografted cancer model. ST7612AA1 was given daily for five days per week (qdx5/w). Tumor growth was followed by measurements of tumor diameters with a Vernier caliper. Tumor volume (TV) was calculated using the formula: TV (mm^3) = [d^2 x D]/2, where d and D are the shortest and the longest diameter, respectively. The efficacy of the drug treatment was assessed as: TV inhibition percentage (TVI%) in treated versus control mice, calculated as: TVI%=100-(mean TV treated/mean TV control x100). When tumors reached a volume of 500-1000 mm^3, mice were sacrificed by cervical dislocation. To examine the possible toxicity of treatment, body weight was recorded throughout the study. BWL% (body weight loss) was calculated as 100 – (mean BWdayx/mean BWday1x100), where day 1 is the first day of treatment and day x is any day after (maximum BWL%). DT as doubling time of control tumors was also evaluated.

[5] = system: Breast cancer MDA-MB436 xenograft; assay: In vivo xenograft model, oral ST7612AA1; parameters: species or system nude mice; settings: 60 mg/10 mL/kg oral, Qdx5/wx4w
Method: as §1

[6] = system: NSCLC NCI-H1975 xenograft; assay: In vivo xenograft model, oral ST7612AA1; parameters: species or system nude mice; settings: 60 mg/10 mL/kg oral, Qdx5/wx2w
Method: as §1

[7] = system: Ovarian cancer SKOV-3 xenograft; assay: In vivo xenograft model, oral ST7612AA1; parameters: species or system nude mice; settings: 60 mg/10 mL/kg oral, Qdx5/wx4w
Method: as §1

[8] = system: Colon cancer HCT-116 xenograft; assay: In vivo xenograft model, oral ST7612AA1; parameters: species or system nude mice; settings: 60 mg/10 mL/kg oral, Qdx5/wx3w
Method: as §1

[9] = system: Breast cancer MDA-MB436; assay: In vitro proliferation assay (sulphorodamine B); format: cell-based; settings: Homo sapiens, MDA-MB-436, 72 h, mean ± S.E.M.

With `CC(=O)SCCCCC[C@H](NC(=O)[C@H]1CCC(=O)N1)C(=O)Nc1ccccc1` [ST7612AA1] the IC50 [1] was 230 nM, the IC50 [2] was 75 ± 10 nM and the IC50 [3] was 190 ± 20 nM. The BWL% max ([4]; maximum body weight loss) was 4%, the Lethal toxicity ([4]; mice dead from toxicity/total) was 0/8 and the BWL% max ([5]; maximum body weight loss) was 4%. The Lethal toxicity ([5]; mice dead from toxicity/total) was 0/8, the BWL% max ([6]; maximum body weight loss) was 4% and the Lethal toxicity ([6]; mice dead from toxicity/total) was 0/8. For the same compound, the BWL% max ([7]; maximum body weight loss) was 1%, the Lethal toxicity ([7]; mice dead from toxicity/total) was 0/8 and the BWL% max ([8]; maximum body weight loss) was 1%. For the same compound, the Lethal toxicity ([8]; mice dead from toxicity/total) was 0/8 and the IC50 [9] was 180 ± 10 nM.
